From patent publication US20120184542A1, “PYRIDO PYRIMIDINES” (priority 2011, published 2012)
Structures can show the parent of a compound that is named as a salt. Where two headings read alike, the source gives them in different places.

Key:
Human DYRK1A = target: T1, Human DYRK1A (Homo sapiens, UniProt Q13627); test: DYRK1A Kinase TR-FRET (IMAP-Tb) Assay; assay type: biochemical; conditions: for IC50: TR-FRET (IMAP-Tb), ATP 70 μM, 37° C. 60 minutes, read-out: Enzyme IC50 (μM) DYRK1A
T1 construct: purchased Invitrogen PV3997
Text: The kinase TR-FRET (IMAP-Tb) assay uses a fluorescence labeled substrate peptide in the kinase reaction. Upon phosphorylation by the kinase, phosphopeptide is produced, which will be detected by the binding solution provided in IMAP TR-FRET binding kit. After the completion of the kinase reaction, the reaction will be stopped by adding the binding solution containing terbium tracer. This tracer is immobilized on the surface of the IMAP beads, which also contain metal ions on the beads that bind to the phospho-groups of the products. Thus the phosphorylated product of the reaction can enter into close proximity to the tracer, producing resonance energy transfer. Due to the long lifetime of terbium (Tb) fluorescence the detection can be run in time resolved mode, which virtually eliminates fluorescence interference from assay components or compounds.
The TR-FRET signal measurement from this assay, given as an IC50 measurement, is a measure of a test compound's ability to interfere with the phosphorylation of the peptide substrate, that is it inhibits the phosphorylation of the substrate peptide by DYRK1A, and is thus a measure of the test compound's ability to inhibit the activity of DYRK1A.
• 1. Human DYRK1A: from Invitrogen. Part #PV3997 • 2. Substrate Peptide: […] • 3. IMAP TR-FRET IPP Explorer Kit: from Molecular Devices. Part #R8157 • 4. Kinase Assay Buffer (KAB): 10 mM HEPES pH 7.0, 50 mM NaCl, 5 mM MgCl2, 1 mM DTT, 1 mM NaVO4, 200 μg/mL BSA (0.02%) • 5. Assay Plate: Remp polypropylene clear 384-well microplate. […] Detection Plate: Costa black 384-well microplate.
• 1. Transfer 1.5 μL of 20× compound solution to each well of an assay plate. • 2. Add to each well 22.5 μL of KAB Buffer. • 3. Add to each well 3 μL of the solution of DYRK1A and ATP. […] Add to each well 3 μL of the substrate peptide. The assay concentration is 1.0 μM • 5. Incubate the assay plates at 37° C. for 60 minutes. • 6. Add 18 μL of Detection Solution (1:800 diluted Progress bead stock, 1:400 diluted Tb stock, 80% Buffer A, and 20% Buffer B) into each well of detection plates. • 7. Transfer 6 μL of assay solution from the assay plate to the detection plate. • 8. Shake detection plates for 30 minutes. • 9. Read plates in Envision with wavelength set at excitation 340 nm for Tb, emission 490 nm, and […].

Human DYRK1B = target: T2, Human DYRK1B (Homo sapiens, UniProt Q9Y463); test: DYRK1B Kinase TR-FRET (IMAP-Tb) Assay; assay type: biochemical; conditions: for IC50: TR-FRET (IMAP-Tb), ATP 70 μM, 37° C. 60 minutes
T2 construct: purchased Invitrogen PR8350B (former PV4649)
T2 sequence (Q9Y463 whole entry): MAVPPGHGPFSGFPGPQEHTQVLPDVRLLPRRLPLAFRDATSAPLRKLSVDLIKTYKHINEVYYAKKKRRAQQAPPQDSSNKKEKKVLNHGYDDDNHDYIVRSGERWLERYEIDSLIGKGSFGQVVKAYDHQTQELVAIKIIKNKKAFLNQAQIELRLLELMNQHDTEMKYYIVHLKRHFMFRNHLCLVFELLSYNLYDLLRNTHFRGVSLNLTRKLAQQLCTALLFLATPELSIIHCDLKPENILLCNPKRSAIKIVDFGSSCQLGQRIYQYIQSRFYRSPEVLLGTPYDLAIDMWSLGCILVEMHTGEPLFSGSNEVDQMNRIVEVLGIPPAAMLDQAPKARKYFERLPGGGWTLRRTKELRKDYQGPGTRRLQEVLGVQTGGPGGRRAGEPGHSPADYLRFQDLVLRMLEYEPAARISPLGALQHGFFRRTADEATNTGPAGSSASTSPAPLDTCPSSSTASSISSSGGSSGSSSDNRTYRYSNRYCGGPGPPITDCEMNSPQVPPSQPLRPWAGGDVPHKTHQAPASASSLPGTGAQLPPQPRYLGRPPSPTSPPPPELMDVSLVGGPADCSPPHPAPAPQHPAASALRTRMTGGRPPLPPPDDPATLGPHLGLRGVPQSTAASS

[1] = read-out: Enzyme IC50 (μM) DYRK1B

CC(NC(=O)c1ccc(Cl)c(NC(=O)c2cc3cnc(N4CCOCC4)nc3[nH]c2=O)c1)c1cccc(Cl)c1 (racemic) [Example 143, 2-Morpholin-4-yl-7-oxo-7,8-dihydro-pyrido[2,3-d]pyrimidine-6-carboxylic acid {2-chloro-5-[1-(3-chloro-phenyl)-ethylcarbamoyl]-phenyl}-amide]
inhibition at 10 µM (Human DYRK1A; read-out: % inhibition of DYRK1A at 10 μM test compound concentration): 57%
inhibition at 10 µM (Human DYRK1B; read-out: % inhibition of DYRK1B at 10 μM test compound concentration): 24%

COc1ncc2cc(C(=O)Nc3cc(C(=O)O)ccc3Cl)c(=O)[nH]c2n1 [Example 22, 4-Chloro-3-[(2-methoxy-7-oxo-7,8-dihydro-pyrido[2,3-d]pyrimidine-6-carbonyl)-amino]-benzoic acid]
IC50 (Human DYRK1A): 0.601 µM
IC50 (Human DYRK1B; [1]): 2.73 µM

COc1ncc2cc(C(=O)Nc3cc(C(=O)OCc4ccccc4)ccc3C)c(=O)[nH]c2n1 [Example 26, 3-[(2-Methoxy-7-oxo-7,8-dihydro-pyrido[2,3-d]pyrimidine-6-carbonyl)-amino]-4-methyl-benzoic acid benzyl ester]
IC50 (Human DYRK1A): 0.323 µM
IC50 (Human DYRK1B; [1]): 0.496 µM

COc1ncc2cc(C(=O)Nc3cc(C(=O)NCc4ccccc4)ccc3C)c(=O)[nH]c2n1 [Example 27, 2-Methoxy-7-oxo-7,8-dihydro-pyrido[2,3-d]pyrimidine-6-carboxylic acid (5-benzylcarbamoyl-2-methyl-phenyl)-amide]
IC50 (Human DYRK1A): 0.376 µM
IC50 (Human DYRK1B; [1]): 2 µM

COC(=O)c1ccc(C)c(NC(=O)c2cc3cnc(N4CCOCC4)nc3[nH]c2=O)c1 [Example 29, 4-Methyl-3-[(2-morpholin-4-yl-7-oxo-7,8-dihydro-pyrido[2,3-d]pyrimidine-6-carbonyl)-amino]-benzoic acid methyl ester]
IC50 (Human DYRK1A): 0.0859 µM
IC50 (Human DYRK1B; [1]): 0.12 µM

COC(=O)c1ccc(Cl)c(NC(=O)c2cc3cnc(N4CCOCC4)nc3[nH]c2=O)c1 [Example 33, 4-Chloro-3-[(2-morpholin-4-yl-7-oxo-7,8-dihydro-pyrido[2,3-d]pyrimidine-6-carbonyl)-amino]-benzoic acid methyl ester]
IC50 (Human DYRK1A): 0.095 µM
IC50 (Human DYRK1B; [1]): 0.128 µM

COC(=O)c1ccc(Cl)c(NC(=O)c2cc3cnc(N4CCCCC4)nc3[nH]c2=O)c1 [Example 34, 4-Chloro-3-[(7-oxo-2-piperidin-1-yl-7,8-dihydro-pyrido[2,3-d]pyrimidine-6-carbonyl)-amino]-benzoic acid methyl ester]
IC50 (Human DYRK1A): 0.05 µM
IC50 (Human DYRK1B; [1]): 0.06 µM

COC(=O)c1ccc(Cl)c(NC(=O)c2cc3cnc(N4CCNCC4)nc3[nH]c2=O)c1 [Example 37, 4-Chloro-3-[(7-oxo-2-piperazin-1-yl-7,8-dihydro-pyrido[2,3-d]pyrimidine-6-carbonyl)-amino]-benzoic acid methyl ester]
IC50 (Human DYRK1A): 0.468 µM
IC50 (Human DYRK1B; [1]): 0.405 µM

CCOCCN(CCOCC)c1ncc2cc(C(=O)Nc3cc(C(=O)OC)ccc3Cl)c(=O)[nH]c2n1 [Example 40, 3-({2-[Bis-(2-ethoxy-ethyl)-amino]-7-oxo-7,8-dihydro-pyrido[2,3-d]pyrimidine-6-carbonyl}-amino)-4-chloro-benzoic acid methyl ester]
IC50 (Human DYRK1A): 0.208 µM
IC50 (Human DYRK1B; [1]): 0.22 µM

COC(=O)c1ccc(Cl)c(NC(=O)c2cc3cnc(NCCO)nc3[nH]c2=O)c1 [Example 41, 4-Chloro-3-{[2-(2-hydroxy-ethylamino)-7-oxo-7,8-dihydro-pyrido[2,3-d]pyrimidine-6-carbonyl]amino}-benzoic acid methyl ester]
IC50 (Human DYRK1A): 0.0796 µM
IC50 (Human DYRK1B; [1]): 0.07 µM

COc1ncc2cc(C(=O)Nc3cc(C(=O)Nc4ccccc4)ccc3Cl)c(=O)[nH]c2n1 [Example 49, 2-Methoxy-7-oxo-7,8-dihydro-pyrido[2,3-d]pyrimidine-6-carboxylic acid (2-chloro-5-phenylcarbamoyl-phenyl)-amide]
IC50 (Human DYRK1B; Enzyme IC50 (μM) DYRK1B): 2.97 µM

COc1ncc2cc(C(=O)Nc3cc(C(=O)N(C)Cc4cccc(Cl)c4)ccc3Cl)c(=O)[nH]c2n1 [Example 65, 2-Methoxy-7-oxo-7,8-dihydro-pyrido[2,3-d]pyrimidine-6-carboxylic acid {2-chloro-5-[(3-chloro-benzyl)-methyl-carbamoyl]-phenyl}-amide]
IC50 (Human DYRK1B; Enzyme IC50 (μM) DYRK1B): 0.586 µM

COc1ncc2cc(C(=O)Nc3cc(C(=O)NCCc4cccc(Cl)c4)ccc3Cl)c(=O)[nH]c2n1 [Example 71, 2-Methoxy-7-oxo-7,8-dihydro-pyrido[2,3-d]pyrimidine-6-carboxylic acid {2-chloro-5-[2-(3-chloro-phenyl)-ethylcarbamoyl]-phenyl}-amide]
IC50 (Human DYRK1B; Enzyme IC50 (μM) DYRK1B): 0.135 µM

Cc1ncc2cc(C(=O)Nc3cc(C(=O)NC(CCN)c4ccccc4)ccc3Cl)c(=O)[nH]c2n1 (stereo not shown) [Example 112, N-(5-(3-Amino-1-phenylpropylcarbamoyl)-2-chlorophenyl)-2-methyl-7-oxo-7,8-dihydropyrido[2,3-d]pyrimidine-6-carboxamide hydrochloride]
IC50 (Human DYRK1B; Enzyme IC50 (μM) DYRK1B): 0.018 µM

CN1CCN(CCCNc2ncc3cc(C(=O)Nc4cc(C(=O)NC(CCN)c5ccccc5)ccc4Cl)c(=O)[nH]c3n2)CC1 (stereo not shown) [Example 120, N-(5-(3-Amino-1-phenylpropylcarbamoyl)-2-chlorophenyl)-2-(3-(4-methylpiperazin-1-yl)propylamino)-7-oxo-7,8-dihydropyrido[2,3-d]pyrimidine-6-carboxamide]
IC50 (Human DYRK1B; Enzyme IC50 (μM) DYRK1B): < 0.0046 µM

COc1ncc2cc(C(=O)Nc3cc(C(=O)N[C@@H](CCN)c4cccc(Cl)c4)ccc3Cl)c(=O)[nH]c2n1 [Example 136, 2-Methoxy-7-oxo-7,8-dihydro-pyrido[2,3-d]pyrimidine-6-carboxylic acid {5-[(S)-3-amino-1-(3-chloro-phenyl)-propylcarbamoyl]-2-chloro-phenyl}-amide]
IC50 (Human DYRK1B; Enzyme IC50 (μM) DYRK1B): 2.55 µM

Cc1ncc2cc(C(=O)Nc3cc(C(=O)N[C@H](CCN)c4ccccc4)ccc3Cl)c(=O)[nH]c2n1 [Example 168, (R)—N-(5-(3-Amino-1-phenylpropylcarbamoyl)-2-chlorophenyl)-2-methyl-7-oxo-7,8-dihydropyrido[2,3-d]pyrimidine-6-carboxamide hydrochloride]
IC50 (Human DYRK1B; Enzyme IC50 (μM) DYRK1B): < 0.0046 µM

COc1nc(C)c2cc(C(=O)Nc3cc(C(=O)NC(CCN)c4ccccc4)ccc3Cl)c(=O)[nH]c2n1 (stereo not shown) [Example 169, N-(5-(3-Amino-1-phenylpropylcarbamoyl)-2-chlorophenyl)-2-methoxy-4-methyl-7-oxo-7,8-dihydropyrido[2,3-d]pyrimidine-6-carboxamide2,2,2-trifluoroacetate]
IC50 (Human DYRK1B; Enzyme IC50 (μM) DYRK1B): 0.101 µM

COc1ncc2cc(C(=O)Nc3cc(C(=O)NC(CCCCN)c4ccccc4)ccc3Cl)c(=O)[nH]c2n1 (stereo not shown) [Example 186, N-(5-(5-Amino-1-phenylpentylcarbamoyl)-2-chlorophenyl)-2-methoxy-7-oxo-7,8-dihydropyrido[2,3-d]pyrimidine-6-carboxamide]
IC50 (Human DYRK1B; Enzyme IC50 (μM) DYRK1B): 1.01 µM

COc1ncc2cc(C(=O)Nc3cc(C(=O)NC(CCCN)c4ccccc4)ccc3Cl)c(=O)[nH]c2n1 (stereo not shown) [Example 189, N-(5-(4-Amino-1-phenylbutylcarbamoyl)-2-chlorophenyl)-2-methoxy-7-oxo-7,8-dihydropyrido[2,3-d]pyrimidine-6-carboxamide]
IC50 (Human DYRK1B; Enzyme IC50 (μM) DYRK1B): 0.0214 µM

COc1ncc2cc(C(=O)Nc3cc(C(=O)NC(CCN)C4CCCCC4)ccc3Cl)c(=O)[nH]c2n1 (stereo not shown) [Example 193, N-(5-(3-Amino-1-cyclohexylpropylcarbamoyl)-2-chlorophenyl)-2-methoxy-7-oxo-7,8-dihydropyrido[2,3-d]pyrimidine-6-carboxamide 2,2,2-trifluoroacetate]
IC50 (Human DYRK1B; Enzyme IC50 (μM) DYRK1B): 0.615 µM
